Where two headings read alike, the source gives them in different places. Where a SMILES comes first, the peptide text is derived from it. Bridges are numbered along the chain shown (N, C = ends). [ ]: non-standard residue; d: D form. The star is where a group is joined. ξ: configuration not given here. Phe(4-CONH2) = NC(=O)c1ccc(C[C@H](N)C(=O)O)cc1; Phe(4-COOH) = N[C@@H](Cc1ccc(C(=O)O)cc1)C(=O)O; Bip = N[C@@H](Cc1ccc(-c2ccccc2)cc1)C(=O)O; Phe(3-OMe) = COc1cccc(C[C@H](N)C(=O)O)c1; Phe(3-Me) = Cc1cccc(C[C@H](N)C(=O)O)c1; Phe(4-F) = N[C@@H](Cc1ccc(F)cc1)C(=O)O; Val(3-OH) = CC(C)(O)[C@H](N)C(=O)O; 4Pal = N[C@@H](Cc1ccncc1)C(=O)O; Cha = N[C@@H](CC1CCCCC1)C(=O)O; Cit = NC(=O)NCCC[C@H](N)C(=O)O; Ile(3ξ) = CCC(C)[C@H](N)C(=O)O; Thr(3ξ) = CC(O)[C@H](N)C(=O)O; Tle = CC(C)(C)[C@H](N)C(=O)O; Carboxymethyl = O=C(O)C*; Orn = NCCC[C@H](N)C(=O)O; Pra = C#CC[C@H](N)C(=O)O; Dab = NCC[C@H](N)C(=O)O; Dap = NC[C@H](N)C(=O)O

For orientation: IC50 means the concentration needed to halve the response being measured.

This experiment has as its target T1, human PD-1 / PD-L1-Ig binding on Jurkat cell line over-expressing human PD-1 (Jurkat-PD-1) (Homo sapiens, UniProt Q15116).
T1 construct: expressed in transfected cells; host or cells: Jurkat
In words: Jurkat-PD-1 Cell Binding High-Content Screening Assay (CBA). The following applies: PE-labeled PD-L1-Ig 20 nM final. Format: cell-based. An outline of the steps: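 PE-PD-L1-Ig 20 nM final; cells in DMEM/10% FCS; cpd pre-incubation 2 h, 37° C; ligand 1 h; PFA fix + Hoechst 33342; high-content imaging read-out.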

[1] abbreviates: Jurkat-PD-1 cells, read-out: Jurkat HPD1_PDL1 IC50.

T1 sequence (Q15116 25-288): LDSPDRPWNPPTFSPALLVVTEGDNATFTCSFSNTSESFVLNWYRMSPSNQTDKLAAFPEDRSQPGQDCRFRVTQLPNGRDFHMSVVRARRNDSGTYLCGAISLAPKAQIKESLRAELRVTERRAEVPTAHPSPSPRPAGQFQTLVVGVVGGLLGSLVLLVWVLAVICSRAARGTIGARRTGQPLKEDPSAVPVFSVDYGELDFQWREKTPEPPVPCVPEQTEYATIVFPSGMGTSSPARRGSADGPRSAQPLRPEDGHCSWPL

Turning to `CCC(C)[C@@H]1NC(=O)[C@H](Cc2ccc(-c3ccccc3)cc2)NC(=O)[C@H](CC(C)C)NC(=O)[C@H](Cc2c[nH]c3ccccc23)NC(=O)[C@H](CC(=O)O)NC(=O)[C@H](Cc2ccc(OCC(=O)O)cc2)NC(=O)[C@H](C(C)O)NC(=O)CSC[C@@H](C(=O)N[C@@H](CC(N)=O)C(=O)O)NC(=O)[C@H](CO)NC(=O)[C@H](C(C)C)NC(=O)[C@H](CC(C)C)NC(=O)[C@H](CCN)NC(=O)[C@@H](CC(C)C)NC(=O)[C@H](CCCN)NC1=O` (stereo partly drawn) [Compound 2577] ({CH2CO}-[Thr(3ξ)]Y(Carboxymethyl)DWL[Bip][Ile(3ξ)][Orn][dL][Dab]LVSCN-OH; thioether N-14), the IC50 under setting [1] is 13.1 nM.

For the compound `COc1cccc(C[C@@H]2NC(=O)[C@H](CC(=O)O)NC(=O)[C@H](Cc3ccc(OCC(=O)O)cc3)NC(=O)[C@H](Cc3ccncc3)NC(=O)CSC[C@@H](C(=O)N[C@@H](C)C(N)=O)NC(=O)[C@H]([C@@H](C)O)NC(=O)[C@H](C(C)C)NC(=O)[C@H](CC3CCCCC3)NC(=O)[C@H](CCN)NC(=O)[C@@H](CC(C)C)NC(=O)[C@H](CCCN)NC(=O)[C@H](CCC(=O)O)NC(=O)[C@H](Cc3ccc(-c4ccccc4)cc3)NC(=O)[C@H](C(C)C)NC2=O)c1` [Compound 1544], the IC50 under setting [1] was found to be 10.5 nM.

`CC(C)C[C@@H]1NC(=O)[C@H](Cc2c[nH]c3ccccc23)NC(=O)[C@H](CC(=O)O)NC(=O)[C@H](Cc2ccc(C(=O)O)cc2)NC(=O)[C@H](Cc2ccc(OCC(=O)O)cc2)NC(=O)CSC[C@@H](C(=O)NCC(N)=O)NC(=O)[C@H](CO)NC(=O)[C@H](C(C)C)NC(=O)[C@H](CC2CCCCC2)NC(=O)[C@H](CC(N)=O)NC(=O)[C@@H](CC(C)C)NC(=O)[C@H](CCCN)NC(=O)[C@H](C(C)C)NC(=O)[C@H](Cc2ccc(-c3ccccc3)cc2)NC1=O` [Compound 1335] ({CH2CO}-Y(Carboxymethyl)[Phe(4-COOH)]DWL[Bip]V[Orn][dL]N[Cha]VSCG-NH2; thioether N-14): under setting [1], the half-maximal inhibitory concentration (IC50) worked out at 20.9 nM.

For the compound `CC(C)C[C@@H]1NC(=O)[C@H](Cc2c[nH]c3ccccc23)NC(=O)[C@H](CC(=O)O)NC(=O)[C@H](Cc2ccncc2)NC(=O)[C@H](CN)NC(=O)CSC[C@@H](C(=O)NCC(N)=O)NC(=O)[C@H](CO)NC(=O)[C@H](C(C)C)NC(=O)[C@H](CC(C)C)NC(=O)[C@H](CC(N)=O)NC(=O)[C@@H](CC(C)C)NC(=O)[C@H](CCCN)NC(=O)[C@H](C(C)C)NC(=O)[C@H](Cc2ccc(-c3ccccc3)cc2)NC1=O` [Compound 1285] ({CH2CO}-[Dap][4Pal]DWL[Bip]V[Orn][dL]NLVSCG-NH2; thioether N-14), the IC50 under setting [1] was determined as 42.6 nM.

On to `CCC(C)[C@@H]1NC(=O)[C@H](Cc2ccc(-c3ccccc3)cc2)NC(=O)[C@H](C(C)C)NC(=O)[C@H](Cc2c[nH]c3ccccc23)NC(=O)[C@H](CC(=O)O)NC(=O)[C@H](Cc2ccc(OCC(=O)O)cc2)NC(=O)[C@H](Cc2ccncc2)NC(=O)CSC[C@@H](C(=O)N[C@@H](C)C(N)=O)NC(=O)[C@H](C(C)O)NC(=O)[C@H](C(C)C)NC(=O)[C@H](CC2CCCCC2)NC(=O)[C@H](CCN)NC(=O)[C@@H](CC(C)C)NC(=O)[C@H](CCCN)NC1=O` (stereo partly drawn) [Compound 2519], for which the IC50 under setting [1] was found to be 6.5 nM.

In the case of `CC(C)C[C@H]1NC(=O)[C@H](CCCN)NC(=O)[C@H](CCCNC(N)=O)NC(=O)[C@H](Cc2ccc(-c3ccccc3)cc2)NC(=O)[C@H](C(C)(C)C)NC(=O)[C@H](Cc2c[nH]c3ccccc23)NC(=O)[C@H](CC(=O)O)NC(=O)[C@H](Cc2ccc(OCC(=O)O)cc2)NC(=O)[C@H](CN)NC(=O)CSC[C@@H](C(=O)N[C@@H](C)C(N)=O)NC(=O)[C@H]([C@@H](C)O)NC(=O)[C@H](C(C)C)NC(=O)[C@H](CC2CCCCC2)NC(=O)[C@H](CCN)NC1=O` [Compound 1362] ({CH2CO}-[Dap]Y(Carboxymethyl)DW[Tle][Bip][Cit][Orn][dL][Dab][Cha]VTCA-NH2; thioether N-14), under setting [1], the half-inhibitory concentration (IC50) was 52.9 nM.

As to `Cc1cccc(C[C@@H]2NC(=O)[C@H](CC(=O)O)NC(=O)[C@H](Cc3ccc(C(=O)O)cc3)NC(=O)[C@H](Cc3ccncc3)NC(=O)CSC[C@@H](C(=O)N[C@@H](C)C(N)=O)NC(=O)[C@H]([C@@H](C)O)NC(=O)[C@H](C(C)C)NC(=O)[C@H](CC3CCCCC3)NC(=O)[C@H](Cc3c[nH]cn3)NC(=O)[C@@H](CC(C)C)NC(=O)[C@H](CCCN)NC(=O)[C@H](C(C)C)NC(=O)[C@H](Cc3ccc(-c4ccccc4)cc3)NC(=O)[C@H](C(C)C)NC2=O)c1` [Compound 1581], where the note is “Jurkat HPD1_PDL1 IC50, Jurkat-PD-1 cells”, the IC50 was found to be 22.4 nM.

In the case of `CC(C)C[C@H]1NC(=O)[C@H](CCCN)NC(=O)[C@H](CCCNC(N)=O)NC(=O)[C@H](Cc2ccc(-c3ccccc3)cc2)NC(=O)[C@H](C(C)C)NC(=O)[C@H](Cc2c[nH]c3ccccc23)NC(=O)[C@H](CC(=O)O)NC(=O)[C@H](Cc2ccc(F)cc2)NC(=O)[C@H](CN)NC(=O)CSC[C@@H](C(=O)N[C@@H](C)C(N)=O)NC(=O)[C@H]([C@@H](C)O)NC(=O)[C@H](C(C)C)NC(=O)[C@H](CC2CCCCC2)NC(=O)[C@H](CCN)NC1=O` [Compound 2103] ({CH2CO}-[Dap][Phe(4-F)]DWV[Bip][Cit][Orn][dL][Dab][Cha]VTCA-NH2; thioether N-14), under setting [1], the IC50 was determined as 15.9 nM.

On to `C#CC[C@H](NC(=O)[C@@H]1CSCC(=O)N[C@@H](CCN)C(=O)N[C@@H](Cc2ccc(C(=O)O)cc2)C(=O)N[C@@H](CC(=O)O)C(=O)N[C@@H](Cc2cccc(C)c2)C(=O)N[C@@H](Cc2ccc(C(=O)O)cc2)C(=O)N[C@@H](Cc2ccc(-c3ccccc3)cc2)C(=O)N[C@@H](Cc2ccc(C(=O)O)cc2)C(=O)N[C@@H](CCCN)C(=O)N[C@H](CC(C)C)C(=O)N[C@@H](CCN)C(=O)N[C@@H](CC2CCCCC2)C(=O)N[C@@H](C(C)(C)O)C(=O)N[C@@H](CO)C(=O)N1)C(=O)O` [Compound 2704] ({CH2CO}-[Dab][Phe(4-COOH)]D[Phe(3-Me)][Phe(4-COOH)][Bip][Phe(4-COOH)][Orn][dL][Dab][Cha][Val(3-OH)]SC[Pra]-OH; thioether N-14), for which the 50% inhibitory concentration (IC50) under setting [1] was 316 nM.

Regarding `CC(=O)NCCCC[C@@H]1NC(=O)[C@H](CCCNC(N)=O)NC(=O)[C@H](Cc2ccc(-c3ccccc3)cc2)NC(=O)[C@H](CC(C)C)NC(=O)[C@H](Cc2c[nH]c3ccccc23)NC(=O)[C@H](CC(N)=O)NC(=O)[C@H](Cc2ccc(OCC(=O)O)cc2)NC(=O)[C@H](Cc2ccccc2)NC(=O)CSC[C@@H](C(=O)N[C@@H](C)C(N)=O)NC(=O)[C@H](CO)NC(=O)[C@H](C(C)C)NC(=O)[C@H](CC2CCCCC2)NC(=O)[C@H](CC(N)=O)NC(=O)[C@@H](CC(C)C)NC1=O` [Compound 2502] ({CH2CO}-FY(Carboxymethyl)NWL[Bip][Cit]K(Ac)[dL]N[Cha]VSCA-NH2; thioether N-14), the 50% inhibitory concentration (IC50) under setting [1] was found to be 50.8 nM.

Consider `Cc1cccc(C[C@@H]2NC(=O)[C@H](CC(=O)O)NC(=O)[C@H](Cc3ccc(C(N)=O)cc3)NC(=O)[C@H](Cc3ccncc3)NC(=O)CSC[C@@H](C(=O)N[C@@H](CCN)C(N)=O)NC(=O)[C@H](CO)NC(=O)[C@H](C(C)(C)O)NC(=O)[C@H](CC3CCCCC3)NC(=O)[C@H](CCN)NC(=O)[C@@H](CC(C)C)NC(=O)[C@H](CCCN)NC(=O)[C@H](Cc3ccc(OCC(=O)O)cc3)NC(=O)[C@H](Cc3ccc(-c4ccccc4)cc3)NC(=O)[C@H](Cc3ccc(C(=O)O)cc3)NC2=O)c1` [Compound 2627] ({CH2CO}-[4Pal][Phe(4-CONH2)]D[Phe(3-Me)][Phe(4-COOH)][Bip]Y(Carboxymethyl)[Orn][dL][Dab][Cha][Val(3-OH)]SC[Dab]-NH2; thioether N-14), for which the IC50 under setting [1] is 5 nM.

With `CC[C@H](C)[C@@H]1NC(=O)[C@H](C(C)C)NC(=O)[C@H](CC2CCCCC2)NC(=O)[C@H](CCN)NC(=O)[C@@H](CC(C)C)NC(=O)[C@H](CCCN)NC(=O)[C@H](CCCNC(N)=O)NC(=O)[C@H](Cc2ccc(-c3ccccc3)cc2)NC(=O)[C@H](C(C)C)NC(=O)[C@H](Cc2c[nH]c3ccccc23)NC(=O)[C@H](CC(=O)O)NC(=O)[C@H](Cc2ccc(OCC(=O)O)cc2)NC(=O)[C@H](CN)NC(=O)CSC[C@@H](C(=O)N[C@@H](C)C(N)=O)NC1=O` [Compound 1320] ({CH2CO}-[Dap]Y(Carboxymethyl)DWV[Bip][Cit][Orn][dL][Dab][Cha]VICA-NH2; thioether N-14), the IC50 under setting [1] is 52.7 nM.

`CC(C)C[C@H]1NC(=O)[C@H](CCCN)NC(=O)[C@H](C(C)C)NC(=O)[C@H](Cc2ccc(-c3ccccc3)cc2)NC(=O)[C@H](C(C)C)NC(=O)[C@H](Cc2c[nH]c3ccccc23)NC(=O)[C@H](CC(=O)O)NC(=O)[C@H](Cc2ccc(OCC(=O)O)cc2)NC(=O)[C@H](C(C)O)NC(=O)CSC[C@@H](C(=O)N[C@@H](CO)C(=O)O)NC(=O)[C@H](C(C)O)NC(=O)[C@H](C(C)C)NC(=O)[C@H](CC2CCCCC2)NC(=O)[C@H](CCN)NC1=O` (stereo partly drawn) [Compound 2603] ({CH2CO}-[Thr(3ξ)]Y(Carboxymethyl)DWV[Bip]V[Orn][dL][Dab][Cha]V[Thr(3ξ)]CS-OH; thioether N-14): the IC50 under setting [1] turned out to be 17.6 nM.

Consider `COc1cccc(C[C@@H]2NC(=O)[C@H](CC(=O)O)NC(=O)[C@H](Cc3ccc(OCC(=O)O)cc3)NC(=O)[C@H](Cc3ccncc3)NC(=O)CSC[C@@H](C(=O)N[C@@H](C)C(N)=O)NC(=O)[C@H]([C@@H](C)O)NC(=O)[C@H](C(C)C)NC(=O)[C@H](CC(C)C)NC(=O)[C@H](CCN)NC(=O)[C@@H](CC(C)C)NC(=O)[C@H](CCCN)NC(=O)[C@H](C(C)C)NC(=O)[C@H](Cc3ccc(-c4ccccc4)cc3)NC(=O)[C@H](C(C)C)NC2=O)c1` [Compound 1188] ({CH2CO}-[4Pal]Y(Carboxymethyl)D[Phe(3-OMe)]V[Bip]V[Orn][dL][Dab]LVTCA-NH2; thioether N-14), for which the IC50 under setting [1] came out at 7.9 nM.

On to `CC[C@H](C)[C@@H]1NC(=O)[C@H](Cc2ccc(-c3ccccc3)cc2)NC(=O)[C@H](C(C)C)NC(=O)[C@H](Cc2cccc(C)c2)NC(=O)[C@H](CC(=O)O)NC(=O)[C@H](Cc2ccncc2)NC(=O)[C@H](Cc2ccc(OCC(=O)O)cc2)NC(=O)CSC[C@@H](C(=O)N[C@@H](C)C(N)=O)NC(=O)[C@H]([C@@H](C)O)NC(=O)[C@H](C(C)C)NC(=O)[C@H](CC2CCCCC2)NC(=O)[C@H](CCN)NC(=O)[C@@H](CC(C)C)NC(=O)[C@H](CCCN)NC1=O` [Compound 1330], for which the IC50 under setting [1] was found to be 12.8 nM.

These data come from US20250163104A1, “MACROCYCLIC IMMUNOMODULATORS” (priority 2021, published 2025).
